Measured values as given in PubChem BioAssay AID179 (DTP/NCI, 2004).
Activity calls are given as the source filed them.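 The calls were made as follows: active = compounds giving half or more protection of infected cells from virus-caused growth loss, again on retest; inactive = the rest.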 Where a SMILES comes first, the peptide text is derived from it.

System: CEM cells HIV-1 protection, formazan growth assay
Experiment: NCI AIDS Antiviral Assay
Settings: for IC50: measured here: growth of uninfected CEM cells
Procedure, shortened: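 Screen of anti-HIV-1 activity in human CEM cells using a formazan-based growth measurement at five drug concentrations. Hits with 50% or greater protection were repeated, and confirmation required reproducible complete protection.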

SMILES | EC50 [µM] | IC50 [µM] | outcome
[C-]#[O+].[C-]#[O+].[C-]#[O+].[C-]#[O+].[C-]#[O+].[C-]#[O+].[Fe].[Fe].c1ccc([P-]c2ccccc2[P-]c2ccccc2)cc1 (stereo not given) | > 1.82 | > 1.82 | –
CC(C)(C)SSCCN | > 200 | > 200 | –
CC(=O)N/N=C1/CC[C@@]2(C)C(=CC[C@H]3C4CCC(C(C)CCCC(C)C)[C@@]4(C)CCC32)C1(C)C (stereo not given in full) | > 200 | 61.7 | –
CC(C)/C(Cl)=N\OC(=O)Nc1cccc(F)c1 | > 200 | 9.77 | –
CC1OC2COC(C)OC2C(C2CN2)O1 (stereo not given) | > 933 | 589 | –
COC1OC2COC1(OC)C1OC(C)(C)OC21 (stereo not given) | > 200 | > 200 | –
Cc1ccc(-c2c3c(n(C4OC(CO)C(O)C(O)C4O)c(=S)c2C#N)CC(C)(C)CC3=O)cc1 (stereo not given) | > 200 | 97.7 | –
CC(C)=CCc1c2c(c3occ(-c4ccc(O)c(O)c4)c(=O)c3c1O)C=CC(C)(C)O2 | > 200 | 39.8 | –
CC(C)(Sc1cc(C(C)(C)C)c(O)c(C(C)(C)C)c1)Sc1cc(C(C)(C)C)c(O)c(C(C)(C)C)c1 | > 26.3 | > 26.3 | –
C=CCN(CC=C)c1nc(Cl)nc(Cl)n1 | > 200 | > 200 | –
CCCOC(=O)c1ccc(N)cc1 | > 200 | > 200 | –
CC(C)CC(NC(=O)C(Cc1ccc(O)cc1)NC(=O)C(CO)NC(=O)C(C)NC(=O)C(CCCN=C(N)N)NC(=O)C(CCC(N)=O)NC(=O)C(NC(=O)C(N)CCC(=O)O)C(C)C)C(=O)NC(CO)C(=O)NC(CCCCN)C(=O)O (stereo not given) (H-EVQRASYLSK-OH; configuration not given here) | – | – | inactive
COC(=O)[C@@]12C(=O)C(C)C(=O)[C@]1(C)C(C)=C[C@H]1[C@]3(C=O)CC[C@H](OC(C)=O)C(C)(C)[C@H]3CC[C@@]12C (stereo not given in full) | > 200 | 97.7 | –
Oc1ccc(-c2nc(-c3ccccc3)c(-c3ccccc3)[nH]2)cc1 | > 200 | 26.9 | –
C[C@@H]1c2ccc3c(c2C2(O)C[C@H]4CCC1N2C4)CC1[C@H]3C[C@@H](O)C2C[C@@H](O)CC[C@@]21C (stereo not given in full) | > 30.9 | > 30.9 | –
CN(C)c1ccc(C=C2C=CC=C2)cc1 | > 19.1 | > 19.1 | –
c1csc(-c2sc(-c3ccsc3)cc2Cc2ccsc2)c1 | – | – | inactive
CC1CN=C(c2ccc(NC(=O)c3ccc(C(=O)Nc4ccc(C5=NCC(C)CN5)cc4)cc3)cc2)NC1 (stereo not given) | > 200 | 25.1 | –
Cc1c(N/C=C(\C#N)C(=O)c2ccc(Cl)cc2)c(=O)n(-c2ccccc2)n1C | > 200 | 72.4 | –
CCOc1ccc(C2OCCC(C)O2)cc1OC (stereo not given) | > 200 | > 200 | –
CCSc1ccc(/C=C(\C#N)c2ccc(OCCN(CC)CC)cc2)cc1 | > 100 | 1.2 | –

SMILES | EC50 [µM] | IC50 [µM] | outcome
O=c1[nH]c2cc(F)c(F)cc2nc1Cc1ccccc1 | > 200 | 132 | –
Cc1ccc(-c2c(C#N)c(-c3ccc([N+](=O)[O-])cc3)c(C#N)c(=O)n2NS(=O)(=O)c2ccc(C)cc2)cc1 | > 200 | 12 | –
Cc1c(O)ccc2c(O)c(NC(=O)c3ccc4c(c3)CCC(C)(C)O4)c(=O)oc12 | > 200 | 83.2 | –
CC1=C(C)C2(OC1=O)C(O)C(C)[C@]1(O)CCC3C4CC=C5CC=CC(=O)[C@]5(C)C4C[C@@]2(O)[C@@]31C (stereo not given in full) | – | – | inactive
CC(C)(C)c1ccc(Oc2ccc(C#N)c(C#N)c2)c(C(C)(C)C)c1 | > 77.6 | > 77.6 | –
CCOC(=O)C(C(C)=O)C(CC(=O)OC)NC(=O)OCc1ccccc1 (stereo not given) | > 257 | > 257 | –
CCCCCC1c2c(cc(C)[nH]c2=O)OC(O)C1CCCC (stereo not given) | > 126 | > 126 | –
CC1C2CC(CC2=O)C1(C)C (stereo not given) | > 1620 | > 1620 | –
O=c1[nH]c(=O)n(C2OC(CO)C(O)C(F)C2O)cc1F (stereo not given) | 186 | > 200 | –
O=C1C=CC2(CCC23C=CC(=O)O3)O1 (stereo not given) | > 135 | 7.94 | –
Cc1ncc2c(n1)NC(=O)NC2 | > 83.2 | > 83.2 | –
Cc1cccc(NC(=O)Nc2ccccc2Cl)n1 | > 200 | > 200 | –
N#C/C=C/c1cccc(Cl)c1 | > 60.3 | > 60.3 | –
Cc1c(C(=O)NCCO)[n+](=O)c2cc(Cl)ccc2n1[O-] | > 832 | 56.2 | –
COC(OC)c1cccnc1C | > 1480 | 1050 | –
Cc1cc2c(cc1Cl)Sc1nccn1S2(=O)=O | 40.7 | 79.4 | –
S=C1NC2=C(COC/C2=C\c2ccccc2Cl)C(c2ccccc2Cl)N1 (stereo not given) | – | – | inactive
CC(C)(O)C(O)COc1c2c(cc3oc(=O)ccc13)OCO2 (stereo not given) | > 813 | 339 | –
COC1/C=C/OC2(C)Oc3c(C)c(O)c4c(O)c(cc(OCC(=O)N5CC(C)(C)C5)c4c3C2=O)NC(=O)/C(C)=C/C=CC(C)C(O)C(C)C(O)C(C)C(OC(C)=O)C1C (stereo not given) | > 200 | 26.9 | –
CCCc1cc(=O)oc2c3c(cc(OC)c12)O[C@H](C)[C@H](C)C3=O | > 200 | 47.9 | –
[CH3][Sn]1([CH3])[O]CC(COc2cc(Cl)c(Cl)cc2Cl)[O]1 (stereo not given) | > 24 | 15.5 | –
